pIC50: −log10 of the molar value. Where a name gives a salt, the structure may show the parent alone. Read-outs that look alike come from different tables or passages of the source.
Tests used:
IRAK4 = molecular target: T1, IRAK4 (Homo sapiens, UniProt Q9NWZ3); test: IRAK4 MSD Biochemical Assay (1 mM ATP, 2 h); details: room temperature; for pIC50: read-out: IRAK4 MSD Biochemical Assay (1 mM ATP, 2 h) IC50
T1 construct: with 0.1 nM IRAK4, 1.6 μM of biotinylated peptide substrate and 10 μM ATP
T1 sequence (Q9NWZ3 1-460): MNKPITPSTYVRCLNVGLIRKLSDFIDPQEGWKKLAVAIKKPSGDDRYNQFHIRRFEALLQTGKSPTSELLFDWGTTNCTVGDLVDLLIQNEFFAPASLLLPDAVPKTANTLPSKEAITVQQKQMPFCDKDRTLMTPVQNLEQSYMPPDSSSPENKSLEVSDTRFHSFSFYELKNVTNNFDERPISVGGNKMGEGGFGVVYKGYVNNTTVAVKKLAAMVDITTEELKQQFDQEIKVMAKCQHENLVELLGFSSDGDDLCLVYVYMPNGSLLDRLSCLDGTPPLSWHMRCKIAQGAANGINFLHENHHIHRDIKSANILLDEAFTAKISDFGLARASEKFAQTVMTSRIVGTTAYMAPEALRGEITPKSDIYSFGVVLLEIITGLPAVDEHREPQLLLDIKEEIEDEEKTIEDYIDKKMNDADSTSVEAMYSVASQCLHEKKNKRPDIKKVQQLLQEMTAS
Procedure, shortened: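 Run with 1 mM ATP and […] for 2 h, then quenched with EDTA, pH 8. The phosphorylated biotinylated peptide was captured on streptavidin plates and detected with anti-phospho-threonine antibody plus Sulfo-Tag secondary by MSD electrochemiluminescence.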

[1] = molecular target: T2, human MDR1 transfected MDCK cells (Homo sapiens, UniProt P08183); test: MDR1-MDCK assay (efflux ratio); assay type: in vitro ADME; details: 1 μM compound, 120 minutes incubation
T2 construct: host or cells: MDCK cells
T2 sequence (P08183 whole entry): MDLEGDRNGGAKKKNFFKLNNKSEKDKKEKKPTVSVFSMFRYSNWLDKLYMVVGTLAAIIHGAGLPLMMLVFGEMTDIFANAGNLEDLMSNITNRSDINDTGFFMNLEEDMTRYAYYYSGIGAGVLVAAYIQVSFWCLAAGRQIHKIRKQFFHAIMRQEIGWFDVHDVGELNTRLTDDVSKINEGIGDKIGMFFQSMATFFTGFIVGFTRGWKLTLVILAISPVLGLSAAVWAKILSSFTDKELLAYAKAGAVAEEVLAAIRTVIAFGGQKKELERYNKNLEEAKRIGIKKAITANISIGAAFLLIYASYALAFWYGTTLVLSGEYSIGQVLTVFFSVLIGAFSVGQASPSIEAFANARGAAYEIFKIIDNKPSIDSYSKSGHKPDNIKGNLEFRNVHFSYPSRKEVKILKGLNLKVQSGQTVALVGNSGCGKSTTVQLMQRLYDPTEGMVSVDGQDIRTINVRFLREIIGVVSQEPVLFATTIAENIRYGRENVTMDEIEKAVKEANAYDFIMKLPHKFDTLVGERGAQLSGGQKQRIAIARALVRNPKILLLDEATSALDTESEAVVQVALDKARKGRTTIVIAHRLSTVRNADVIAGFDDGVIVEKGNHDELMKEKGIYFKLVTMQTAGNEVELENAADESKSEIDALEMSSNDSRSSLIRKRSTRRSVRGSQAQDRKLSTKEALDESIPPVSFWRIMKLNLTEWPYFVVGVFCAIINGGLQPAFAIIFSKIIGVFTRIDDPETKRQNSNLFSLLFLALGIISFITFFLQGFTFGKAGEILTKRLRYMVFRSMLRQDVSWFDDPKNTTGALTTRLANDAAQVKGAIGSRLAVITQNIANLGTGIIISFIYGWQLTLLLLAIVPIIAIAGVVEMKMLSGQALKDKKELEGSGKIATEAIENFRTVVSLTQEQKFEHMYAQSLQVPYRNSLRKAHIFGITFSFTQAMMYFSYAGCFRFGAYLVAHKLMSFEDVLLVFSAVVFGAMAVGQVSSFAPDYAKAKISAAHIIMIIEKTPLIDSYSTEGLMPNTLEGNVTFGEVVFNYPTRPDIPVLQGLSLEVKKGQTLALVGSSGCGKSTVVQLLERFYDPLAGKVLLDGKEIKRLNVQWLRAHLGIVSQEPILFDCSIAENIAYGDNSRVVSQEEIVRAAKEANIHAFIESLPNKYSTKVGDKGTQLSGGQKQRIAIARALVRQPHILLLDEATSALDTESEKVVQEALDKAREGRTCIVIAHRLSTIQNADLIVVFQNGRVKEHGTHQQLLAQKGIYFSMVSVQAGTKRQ
Procedure, shortened: (§1)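 Human MDR1-transfected MDCK monolayers, cultured 7 days on transwell inserts with TEER checked, were dosed with compound at 1 μM in HBSS-HEPES. Transport was measured in both A-B and B-A directions. Efflux ratio came from the directional permeabilities, with mass balance also calculated.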

MDR1 (P-gp) = molecular target: T3, MDR1 (P-gp) (Homo sapiens, UniProt P08183); test: MDR1-MDCK assay (efflux ratio); assay type: in vitro ADME; details: human, MDCK-MDR1, 1 μM compound, 120 minutes incubation; read-out: MDR1-MDCK Efflux Ratio; (B-A/A-B)
T3 construct: host or cells: MDCK cells
T3 sequence (P08183 whole entry): as above
Procedure, shortened: as §1

Row | Compound | pIC50 (IRAK4) | MDR1-MDCK Efflux Ratio; (B-A/A-B) [1] | efflux ratio at 120 min, 1 μM (MDR1 (P-gp)) | IC50 (IRAK4; IRAK4 MSD Biochemical Assay (1 mM ATP, 2 h) IC50 (nM)) [nM]
1 | 6-Ethoxy-N-(2-methoxypyridin-3-yl)-2-(1-methyl-2-oxabicyclo[2.1.1]hexan-4-yl)-2H-indazole-5-carboxamide tfifluoroacetate [Example 85] | 9.05 | 0.8 | – | –
2 | Cc1cnc2c(NC(=O)c3cc4cn(C5CCCOC5)nc4nc3OC3CCC3)cnn2c1 (single isomer, unassigned) [Example 132] | 10.00 | 2.0 | – | –
3 | Cc1ccn2ncc(NC(=O)c3cc4cn(C5CCCOC5)nc4nc3OC3CCC3)c2n1 (single isomer, unassigned) [Example 134] | 9.00 | 2.1 | – | –
4 | COc1cnc2c(NC(=O)c3cc4cn([C@@]56CC[C@@](C)(C5)OC6)nc4cc3OC(C)C)cnn2c1 (single isomer, unassigned) [Example 135] | 9.22 | 2.3 | – | –
5 | COc1cnc2c(NC(=O)c3cc4cn([C@]56CC[C@](C)(C5)OC6)nc4cc3OC(C)C)cnn2c1 (single isomer, unassigned) [Example 136] | 8.85 | 2.3 | – | –
6 | CC12CCC(n3cc4cc(C(=O)Nc5cnn6cccnc56)c(OC5CCC5)cc4n3)(CO1)C2 (single isomer, unassigned) [Example 138] | 9.70 | 1.7 | – | –
7 | CC(C)Oc1cc2nn(C34COC(C)(C3)C4)cc2cc1C(=O)Nc1cccc(C(F)F)n1 [Example 88, N-(6-(difluoromethyl)pyridin-2-yl)-6-isopropoxy-2-(1-methyl-2-oxabicyclo[2.1.1]hexan-4-yl)-2H-indazole-5-carboxamide trifluoroacetate] | 10.00 | – | 0.5 | –
8 | COc1cccc(NC(=O)c2cc3cn(C45COC(C)(C4)C5)nc3cc2OC(C)C)n1 [Example 89, 6-Isopropoxy-N-(6-methoxypyridin-2-yl)-2-(1-methyl-2-oxabicyclo[2.1.1]hexan-4-yl)-2H-indazole-5-carboxamide trifluoroacetae] | 9.00 | – | 0.6 | –
9 | COc1ncccc1NC(=O)c1cc2cn(C34COC(C)(C3)C4)nc2cc1OC(C)C [Example 90, 6-Isopropoxy-N-(2-methoxypyridin-3-yl)-2-(1-methyl-2-oxabicyclo[2.1.1]hexan-4-yl)-2H-indazole-5-carboxamide trifluoroacetate] | 9.22 | – | 0.7 | –
10 | CC(C)Oc1cc2nn(C34COC(C)(C3)C4)cc2cc1C(=O)Nc1cccn(C(F)F)c1=O [Example 91, N-(1-(difluoromethyl)-2-oxo-1,2-dihydropyridin-3-yl)-6-isopropoxy-2-(1-methyl-2-oxabicyclo[2.1.]hexan-4-yl)-2H-indazole-5-carboxamide tfifluoroacetate] | – | – | 0.8 | 0.3
11 | CC(C)Oc1cc2nn(C34COC(C)(C3)C4)cc2cc1C(=O)Nc1ccn(C)n1 [Example 92, 6-Isopropoxy-N-(1-methyl-1H-pyrazol-3-yl)-2-(1-methyl-2-oxabicyclo[2.1.1]hexan-4-yl)-2H-indazole-5-carboxamide] | 8.32 | – | 1.6 | –
12 | CC(C)Oc1cc2nn(C34COC(C)(C3)C4)cc2cc1C(=O)Nc1cnn2cccnc12 [Example 93, 6-Isopropoxy-2-(1-methyl-2-oxabicyclo[2.1.1]hexan-4-yl)-N-(pyrazolo[1,5-a]pyrimidin-3-yl)-2H-indazole-5-carboxamide] | 9.40 | – | 1.4 | –
13 | Cc1cnc2c(NC(=O)c3cc4cn(C56COC(C)(C5)C6)nc4cc3OC(C)C)cnn2c1 [Example 94, 6-Isopropoxy-2-(1-methyl-2-oxabicyclo[2.1.1]hexan-4-yl)-N-(6-methylpyrazolo[1,5-a]pyrimidin-3-yl)-2H-indazole-5-carboxamide] | 8.89 | – | 1.4 | –
14 | CC(C)Oc1cc2nn(C34COC(C)(C3)C4)cc2cc1C(=O)Nc1cnn2cc(Cl)cnc12 [Example 95, N-(6-chloropyrazolo[1,5-a]pyrimidin-3-yl)-6-isopropoxy-2-(1-methyl-2-oxabicyclo[2.1.1]hexan-4-yl)-2H-indazole-5-carboxamide] | 9.52 | – | 0.9 | –
15 | CC(C)Oc1cc2nn(C34COC(C)(C3)C4)cc2cc1C(=O)Nc1cnn2cc(F)cnc12 [Example 96, N-(6-fluoropyrazolo[1,5-a]pyrimidine-3-yl)-6-isopropoxy-2-(1-methyl-2-oxabicyclo[2.1.1]hexan-4-yl)-2H-indazole-5-carboxamide trifluoroacetate] | 8.85 | – | 1.6 | –
16 | CC(C)Oc1cc2nn(C34CCC(C)(C3)OC4)cc2cc1C(=O)Nc1cccc(C(F)F)n1 (stereo not shown) [Example 97, N-(6-(difluoromethyl)pyridin-2-yl)-6-isopropoxy-2-(1-methyl-2-oxabicyclo[2.2.1]heptan-4-yl)-2H-indazole-5-carboxamide] | 9.70 | – | 1.1 | –
17 | CC(C)Oc1cc2nn(C34CCC(C)(C3)OC4)cc2cc1C(=O)Nc1cnn2cccnc12 (stereo not shown) [Example 98, 6-Isopropoxy-2-(1-methyl-2-oxabicyclo[2.2.1]heptan-4-yl)-N-(pyrazolo[1,5-a]pyrimidin-3-yl)-2H-indazole-5-carboxamide] | 9.30 | – | 1 | –
18 | Cc1cnc2c(NC(=O)c3cc4cn(C56CCC(C)(C5)OC6)nc4cc3OC(C)C)cnn2c1 (stereo not shown) [Example 99, 6-Isopropoxy-2-(1-methyl-2-oxabicyclo[2.2.1]heptan-4-yl)-N-(6-methylpyrazolo[1,5-a]pyrimidin-3-yl)-2H-indazole-5-carboxamide trifluoroacetate] | 9.52 | – | 1.2 | –
19 | CC(C)Oc1cc2nn(C34CCC(C)(C3)OC4)cc2cc1C(=O)Nc1ccn(C)n1 (stereo not shown) [Example 101, 6-Isopropoxy-N-(1-methyl-1H-pyrazol-3-yl)-2-(1-methyl-2-oxabicyclo[2.2.1]heptan-4-yl)-2H-indazole-5-carboxamide] | 8.39 | – | 1.5 | –
20 | CC(C)Oc1cc2nn(C34CCC(C)(CC3)OC4)cc2cc1C(=O)Nc1ccn(C)n1 [Example 103, 6-Isopropoxy-N-(1-methyl-1H-pyrazol-3-yl)-2-(1-methyl-2-oxabicyclo[2.2.2]octan-4-yl)-2H-indazole-5-carboxamide] | 8.72 | – | 0.9 | –
21 | CC(C)Oc1c(C(=O)Nc2cccc(C(F)F)n2)cc2cn(C3CCOCC3)nc2c1Cl [Example 124, 7-Chloro-N-(6-(difluoromethyl)pyridin-2-yl)-6-isopropoxy-2-(tetrahydro-2H-pyran-4-yl)-2H-indazole-5-carboxamide Trifluoroacetate] | 7.70 | – | 1.1 | –
22 | CC12CCC(n3cc4cc(C(=O)Nc5ccn(C(F)F)n5)c(OC5CCC5)cc4n3)(CC1)CO2 [Example 139, 6-cyclobutoxy-N-(1-(difluoromethyl)-1H-pyrazol-3-yl)-2-(1-methyl-2-oxabicyclo[2.2.2]octan-4-yl)-2H-indazole-5-carboxamide] | 9.05 | – | 0.8 | –
23 | Cn1ccc(NC(=O)c2cc3cn(C45CCC(C)(CC4)OC5)nc3cc2OC2CCC2)n1 [Example 140, 6-cyclobutoxy-N-(1-methyl-1H-pyrazol-3-yl)-2-(1-methyl-2-oxabicyclo[2.2.2]octan-4-yl)-2H-indazole-5-carboxamide] | 9.05 | – | 0.9 | –
